The molecules below were run on corn (Ze) (assay: Test Example 7: crop plant selectivity by upland field soil treatment (corn), phytotoxicity). Conditions: dose 6.3 g ai/10a, 21st day after application.
Type: in vivo
Design: scale not given here
Procedure: (§1) (Test on Crop Plant Selectivity by Upland Field Soil Treatment)
(§2) In a plastic pot (surface area: 600 cm^2) filled with sand, corn (Ze), green foxtail (Se), pale smartweed (Po), slender amaranth (Am), common lambsquarters (Ch) and China jute (Ab) were sown and covered with soil. […] The plants were then cultured in a green house, and the evaluation of the herbicidal effects and phytotoxicity was conducted on the 21st day after the application in accordance with the standards as identified in Table 47.
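Throughout, for Herbicidal effects Ec: grade of growth control; 5 = at least 90%; 4 = 70 to 90%; 3 = 50 to 70%; 2 = 30 to 50%; 1 = 10 to 30%; 0 = under 10%.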
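Throughout, for Herbicidal effects Sc: grade of growth control; 5 = at least 90%; 4 = 70 to 90%; 3 = 50 to 70%; 2 = 30 to 50%; 1 = 10 to 30%; 0 = under 10%.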

Row | Structure (SMILES) | Phytotoxicity Ze
1 | COc1cc(Cl)cc(F)c1-c1ccc(C(F)(F)F)n(C)c1=O [1′-1] | 1

Each molecule was assayed on bulrush (Sc) (assay: Test Example 1: herbicidal effects by paddy field soil treatment). Conditions: 100 g of the active ingredient per 10 ares, 21st day after the application, index 0-5 of Table 47.
Type: in vivo
Outline: (§3)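 Herbicidal effect was scored against a graded standard 21 days after treatment. Seeds were sown in puddled, leveled paddy soil flooded to 3 cm depth, and the active ingredient was applied at 100 g per 10 ares before greenhouse culture.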

Row | Structure (SMILES) | Herbicidal effects Sc
2 | COc1cc(Cl)cc(F)c1-c1ccc(C(F)(F)F)n(C)c1=O [1′-1] | 5

What follows are molecules tested on monochoria (Mo) in the same assay as above. Conditions: 100 g of the active ingredient per 10 ares, 21st day after the application, index 0-5 of Table 47.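 Note: grade of growth control; 5 = at least 90%; 4 = 70 to 90%; 3 = 50 to 70%; 2 = 30 to 50%; 1 = 10 to 30%; 0 = under 10%.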
Type: in vivo
Outline: as §3

Row | Structure (SMILES) | Herbicidal effects Mo
3 | COc1cc(Cl)cc(F)c1-c1ccc(C(F)(F)F)n(C)c1=O [1′-1] | 5

Each molecule was assayed on barnyardgrass (Ec) in the same assay as above. Conditions: 100 g of the active ingredient per 10 ares, 21st day after the application, index 0-5 of Table 47.
Type: in vivo
Outline: as §3

Row | Structure (SMILES) | Herbicidal effects Ec
4 | COc1cc(Cl)cc(F)c1-c1ccc(C(F)(F)F)n(C)c1=O [1′-1] | 5

The molecules below were run on common lambsquarters (Ch) (assay: Test Example 2: herbicidal effects by upland field soil treatment). Conditions: 100 g of the active ingredient per 10 ares, evaluated on the 21st day after application.
Type: in vivo
Source text: (§4) (Test on Herbicidal Effects by Upland Field Soil Treatment)

Row | Structure (SMILES) | Herbicidal effects Ch
5 | COc1cc(Cl)cc(F)c1-c1ccc(C(F)(F)F)n(C)c1=O [1′-1] | 5

What follows are molecules tested on Digitaria ciliaris (Di) in the same assay as above. Conditions: 100 g of the active ingredient per 10 ares, evaluated on the 21st day after application.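 Note: grade of growth control; 5 = at least 90%; 4 = 70 to 90%; 3 = 50 to 70%; 2 = 30 to 50%; 1 = 10 to 30%; 0 = under 10%.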
Type: in vivo
Source text: as §4

Row | Structure (SMILES) | Herbicidal effects Di
6 | COc1cc(Cl)cc(F)c1-c1ccc(C(F)(F)F)n(C)c1=O [1′-1] | 5

What follows are molecules tested on slender amaranth (Am) in the same assay as above. Conditions: 100 g of the active ingredient per 10 ares, evaluated on the 21st day after application.
Type: in vivo
Source text: as §4

Row | Structure (SMILES) | Herbicidal effects Am
7 | COc1cc(Cl)cc(F)c1-c1ccc(C(F)(F)F)n(C)c1=O [1′-1] | 5

What follows are molecules tested on rice flatsedge (Ci) in the same assay as above. Conditions: 100 g of the active ingredient per 10 ares, evaluated on the 21st day after application.
Type: in vivo
Source text: as §4

Row | Structure (SMILES) | Herbicidal effects Ci
8 | COc1cc(Cl)cc(F)c1-c1ccc(C(F)(F)F)n(C)c1=O [1′-1] | 5

These molecules were tested on pale smartweed (Po) in the same assay as above. Conditions: 100 g of the active ingredient per 10 ares, evaluated on the 21st day after application.
Type: in vivo
Source text: as §4

Row | Structure (SMILES) | Herbicidal effects Po
9 | COc1cc(Cl)cc(F)c1-c1ccc(C(F)(F)F)n(C)c1=O [1′-1] | 5

Each molecule was assayed on barnyardgrass (Ec) in the same assay as above. Conditions: 100 g of the active ingredient per 10 ares, evaluated on the 21st day after application.
Type: in vivo
Source text: as §4

Row | Structure (SMILES) | Herbicidal effects Ec
10 | COc1cc(Cl)cc(F)c1-c1ccc(C(F)(F)F)n(C)c1=O [1′-1] | 5

The molecules below were run on green foxtail (Se) (assay: Test Example 7: crop plant selectivity by upland field soil treatment (corn), herbicidal effects). Conditions: dose 6.3 g ai/10a, 21st day after application.
Type: in vivo
Design: scale not given here
Procedure: as §1, §2

Row | Structure (SMILES) | Herbicidal effects Se
11 | COc1cc(Cl)cc(F)c1-c1ccc(C(F)(F)F)n(C)c1=O [1′-1] | 5

The molecules below were run on common lambsquarters (Ch) in the same assay as above. Conditions: dose 6.3 g ai/10a, 21st day after application.
Type: in vivo
Design: scale not given here
Procedure: as §1, §2

Row | Structure (SMILES) | Herbicidal effects Ch
12 | COc1cc(Cl)cc(F)c1-c1ccc(C(F)(F)F)n(C)c1=O [1′-1] | 5

Each molecule was assayed on China jute (Ab) in the same assay as above. Conditions: dose 6.3 g ai/10a, 21st day after application.
Type: in vivo
Design: scale not given here
Procedure: as §1, §2

Row | Structure (SMILES) | Herbicidal effects Ab
13 | COc1cc(Cl)cc(F)c1-c1ccc(C(F)(F)F)n(C)c1=O [1′-1] | 5

Each molecule was assayed on slender amaranth (Am) in the same assay as above. Conditions: dose 6.3 g ai/10a, 21st day after application.
Type: in vivo
Design: scale not given here
Procedure: as §1, §2

Row | Structure (SMILES) | Herbicidal effects Am
14 | COc1cc(Cl)cc(F)c1-c1ccc(C(F)(F)F)n(C)c1=O [1′-1] | 5

Each molecule was assayed on pale smartweed (Po) in the same assay as above. Conditions: dose 6.3 g ai/10a, 21st day after application.
Type: in vivo
Design: scale not given here
Procedure: as §1, §2

Row | Structure (SMILES) | Herbicidal effects Po
15 | COc1cc(Cl)cc(F)c1-c1ccc(C(F)(F)F)n(C)c1=O [1′-1] | 5

What follows are molecules tested on green foxtail (Se) (assay: Test Example 6: crop plant selectivity by upland field soil treatment (soybean), herbicidal effects). Conditions: dose 6.3 g ai/10a, 21st day after application.
Type: in vivo
Design: scale not given here
Procedure: as §1
(§5) In a plastic pot (surface area: 600 cm^2) filled with sand, soybean (Gl), Diaitaria ciliaris (Di), green foxtail (Se), Johnsongrass (So), pale smartweed (Po), slender amaranth (Am), common lambsquarters (Ch) and China jute (Ab) were sown and covered with soil. […] The plants were then cultured in a green house, and the evaluation of the herbicidal effects and phytotoxicity was conducted on the 21st day after the application in accordance with the standards as identified in Table 47. Symbol—represents “not tested”.

Row | Structure (SMILES) | Herbicidal effects Se
16 | COc1cc(Cl)cc(F)c1-c1ccc(C(F)(F)F)n(C)c1=O [1′-1] | 5

The molecules below were run on common lambsquarters (Ch) in the same assay as above. Conditions: dose 6.3 g ai/10a, 21st day after application.
Type: in vivo
Design: scale not given here
Procedure: as §1, §5

Row | Structure (SMILES) | Herbicidal effects Ch
17 | COc1cc(Cl)cc(F)c1-c1ccc(C(F)(F)F)n(C)c1=O [1′-1] | 5

Each molecule was assayed on China jute (Ab) in the same assay as above. Conditions: dose 6.3 g ai/10a, 21st day after application.
Type: in vivo
Design: scale not given here
Procedure: as §1, §5

Row | Structure (SMILES) | Herbicidal effects Ab
18 | COc1cc(Cl)cc(F)c1-c1ccc(C(F)(F)F)n(C)c1=O [1′-1] | 5

What follows are molecules tested on slender amaranth (Am) in the same assay as above. Conditions: dose 6.3 g ai/10a, 21st day after application.
Type: in vivo
Design: scale not given here
Procedure: as §1, §5

Row | Structure (SMILES) | Herbicidal effects Am
19 | COc1cc(Cl)cc(F)c1-c1ccc(C(F)(F)F)n(C)c1=O [1′-1] | 5

— US6472348B1, “Pyridone derivatives and herbicides” (Kumiai Chemical Industry Co., Ltd., priority 1996, dated 2002)
